Laboratory results reported in patent US8192962B2, “Processes for detecting toxic substances” (Daikin Industries, Ltd., priority 2001, dated 2012).

System: Metabolism protein genes
Experiment: DNA chip mRNA expression in yeast, metabolism protein genes (Table 7)
Format: cell-based, Saccharomyces cerevisiae S288C
Method in brief: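 Chemical exposure: 2 h, log-phase S. cerevisiae S288C, YPD, 25° C., dose set to inhibit growth without death. Profiling: mRNA labeled by reverse transcription with Cy3- or Cy5-dUTP, hybridized to whole-genome array. Output: fluorescence ratio against untreated culture.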

For `Cl[C@H]1[C@H](Cl)[C@@H](Cl)[C@@H](Cl)[C@H](Cl)[C@H]1Cl` [(7), γ-hexachlorocyclohexane], the “The level of expressed mRNA in the presence of chemical substance/The level of expressed mRNA in the absence of chemical substance” value (yeast gene YAL012W) was 0.6, the “The level of expressed mRNA in the presence of chemical substance/The level of expressed mRNA in the absence of chemical substance” value (yeast gene YAL038W) was 0.9 and the “level of expressed mRNA in the presence/in the absence of chemical substance” value (yeast gene YBR003W) was 1.1. For the same molecule, the “level of expressed mRNA in the presence/in the absence of chemical substance” value (yeast gene YBR011C) was 1.1, the “level of expressed mRNA in the presence/in the absence of chemical substance” value (yeast gene YBR020W) was 0.7 and the “The level of expressed mRNA in the presence of chemical substance/The level of expressed mRNA in the absence of chemical substance” value (yeast gene YBR023C) was 0.7. The “The level of expressed mRNA in the presence of chemical substance/The level of expressed mRNA in the absence of chemical substance” value (yeast gene YBR029C) was 0.4, the “The level of expressed mRNA in the presence of chemical substance/The level of expressed mRNA in the absence of chemical substance” value (yeast gene YBR183W) was 1.7 and the “The level of expressed mRNA in the presence of chemical substance/The level of expressed mRNA in the absence of chemical substance” value (yeast gene YBR222C) was 1.0. For the same molecule, the “The level of expressed mRNA in the presence of chemical substance/The level of expressed mRNA in the absence of chemical substance” value (yeast gene YBR256C) was 2.1, the “The level of expressed mRNA in the presence of chemical substance/The level of expressed mRNA in the absence of chemical substance” value (yeast gene YCL009C) was 1.3 and the “The level of expressed mRNA in the presence of chemical substance/The level of expressed mRNA in the absence of chemical substance” value (yeast gene YCL064C) was 13.4. The “level of expressed mRNA in the presence/in the absence of chemical substance” value (yeast gene YCR010C) was 1.3, the “level of expressed mRNA in the presence/in the absence of chemical substance” value (yeast gene YCR034W) was 0.3 and the “The level of expressed mRNA in the presence of chemical substance/The level of expressed mRNA in the absence of chemical substance” value (yeast gene YCR048W) was 0.9. For the same molecule, the “The level of expressed mRNA in the presence of chemical substance/The level of expressed mRNA in the absence of chemical substance” value (yeast gene YCR098C) was 1.2, the “The level of expressed mRNA in the presence of chemical substance/The level of expressed mRNA in the absence of chemical substance” value (yeast gene YDR019C) was 1.4 and the “level of expressed mRNA in the presence/in the absence of chemical substance” value (yeast gene YDR050C) was 1.5. For the same molecule, the “level of expressed mRNA in the presence/in the absence of chemical substance” value (yeast gene YDR073W) was 1.2, the “level of expressed mRNA in the presence/in the absence of chemical substance” value (yeast gene YDR123C) was 0.9 and the “level of expressed mRNA in the presence/in the absence of chemical substance” value (yeast gene YDR178W) was 0.6. The “level of expressed mRNA in the presence/in the absence of chemical substance” value (yeast gene YDR277C) was 1.2, the “level of expressed mRNA in the presence/in the absence of chemical substance” value (yeast gene YDR284C) was 1.4 and the “level of expressed mRNA in the presence/in the absence of chemical substance” value (yeast gene YDR345C) was 1.1. The “The level of expressed mRNA in the presence of chemical substance/The level of expressed mRNA in the absence of chemical substance” value (yeast gene YDR380W) was 0.5, the “level of expressed mRNA in the presence/in the absence of chemical substance” value (yeast gene YDR400W) was 0.6 and the “level of expressed mRNA in the presence/in the absence of chemical substance” value (yeast gene YDR408C) was 0.8. For the same molecule, the “level of expressed mRNA in the presence/in the absence of chemical substance” value (yeast gene YDR483W) was 0.8, the “The level of expressed mRNA in the presence of chemical substance/The level of expressed mRNA in the absence of chemical substance” value (yeast gene YDR497C) was 0.5 and the “The level of expressed mRNA in the presence of chemical substance/The level of expressed mRNA in the absence of chemical substance” value (yeast gene YDR502C) was 0.9. The “The level of expressed mRNA in the presence of chemical substance/The level of expressed mRNA in the absence of chemical substance” value (yeast gene YDR516C) was 3.9, the “level of expressed mRNA in the presence/in the absence of chemical substance” value (yeast gene YEL063C) was 0.7 and the “level of expressed mRNA in the presence/in the absence of chemical substance” value (yeast gene YER015W) was 1.2. For the same molecule, the “The level of expressed mRNA in the presence of chemical substance/The level of expressed mRNA in the absence of chemical substance” value (yeast gene YER026C) was 1.6, the “The level of expressed mRNA in the presence of chemical substance/The level of expressed mRNA in the absence of chemical substance” value (yeast gene YER053C) was 2.8 and the “The level of expressed mRNA in the presence of chemical substance/The level of expressed mRNA in the absence of chemical substance” value (yeast gene YER069W) was 1.0. The “level of expressed mRNA in the presence/in the absence of chemical substance” value (yeast gene YER081W) was 0.5, the “The level of expressed mRNA in the presence of chemical substance/The level of expressed mRNA in the absence of chemical substance” value (yeast gene YER096W) was 0.9 and the “level of expressed mRNA in the presence/in the absence of chemical substance” value (yeast gene YER120W) was 0.9. The “The level of expressed mRNA in the presence of chemical substance/The level of expressed mRNA in the absence of chemical substance” value (yeast gene YER178W) was 1.6, the “level of expressed mRNA in the presence/in the absence of chemical substance” value (yeast gene YFL011W) was 0.8 and the “The level of expressed mRNA in the presence of chemical substance/The level of expressed mRNA in the absence of chemical substance” value (yeast gene YFL014W) was 5.5. For the same molecule, the “The level of expressed mRNA in the presence of chemical substance/The level of expressed mRNA in the absence of chemical substance” value (yeast gene YFL030W) was 0.6, the “The level of expressed mRNA in the presence of chemical substance/The level of expressed mRNA in the absence of chemical substance” value (yeast gene YFL031W) was 0.9 and the “The level of expressed mRNA in the presence of chemical substance/The level of expressed mRNA in the absence of chemical substance” value (yeast gene YFL056C) was 1.4. For the same molecule, the “The level of expressed mRNA in the presence of chemical substance/The level of expressed mRNA in the absence of chemical substance” value (yeast gene YFL057C) was 1.8, the “The level of expressed mRNA in the presence of chemical substance/The level of expressed mRNA in the absence of chemical substance” value (yeast gene YFR047C) was 2.0 and the “level of expressed mRNA in the presence/in the absence of chemical substance” value (yeast gene YGL012W) was 0.9. The “The level of expressed mRNA in the presence of chemical substance/The level of expressed mRNA in the absence of chemical substance” value (yeast gene YGL022W) was 0.7, the “level of expressed mRNA in the presence/in the absence of chemical substance” value (yeast gene YGL115W) was 1.4 and the “level of expressed mRNA in the presence/in the absence of chemical substance” value (yeast gene YGL205W) was 0.8. For the same molecule, the “The level of expressed mRNA in the presence of chemical substance/The level of expressed mRNA in the absence of chemical substance” value (yeast gene YGL209W) was 1.0, the “The level of expressed mRNA in the presence of chemical substance/The level of expressed mRNA in the absence of chemical substance” value (yeast gene YGL248W) was 1.6 and the “The level of expressed mRNA in the presence of chemical substance/The level of expressed mRNA in the absence of chemical substance” value (yeast gene YGR037C) was 1.4. For the same molecule, the “The level of expressed mRNA in the presence of chemical substance/The level of expressed mRNA in the absence of chemical substance” value (yeast gene YGR055W) was 0.6, the “level of expressed mRNA in the presence/in the absence of chemical substance” value (yeast gene YGR096W) was 0.9 and the “level of expressed mRNA in the presence/in the absence of chemical substance” value (yeast gene YGR191W) was 0.7. The “The level of expressed mRNA in the presence of chemical substance/The level of expressed mRNA in the absence of chemical substance” value (yeast gene YGR194C) was 2.2, the “level of expressed mRNA in the presence/in the absence of chemical substance” value (yeast gene YGR204W) was 0.8 and the “The level of expressed mRNA in the presence of chemical substance/The level of expressed mRNA in the absence of chemical substance” value (yeast gene YGR256W) was 1.4. The “The level of expressed mRNA in the presence of chemical substance/The level of expressed mRNA in the absence of chemical substance” value (yeast gene YGR282C) was 1.1, the “level of expressed mRNA in the presence/in the absence of chemical substance” value (yeast gene YGR288W) was 1.4 and the “level of expressed mRNA in the presence/in the absence of chemical substance” value (yeast gene YHR025W) was 0.8. The “The level of expressed mRNA in the presence of chemical substance/The level of expressed mRNA in the absence of chemical substance” value (yeast gene YHR111W) was 1.6, the “level of expressed mRNA in the presence/in the absence of chemical substance” value (yeast gene YHR123W) was 0.9 and the “The level of expressed mRNA in the presence of chemical substance/The level of expressed mRNA in the absence of chemical substance” value (yeast gene YHR137W) was 0.4. For the same molecule, the “The level of expressed mRNA in the presence of chemical substance/The level of expressed mRNA in the absence of chemical substance” value (yeast gene YHR174W) was 1.6, the “The level of expressed mRNA in the presence of chemical substance/The level of expressed mRNA in the absence of chemical substance” value (yeast gene YHR176W) was 1.4 and the “level of expressed mRNA in the presence/in the absence of chemical substance” value (yeast gene YHR210C) was 1.9. For the same molecule, the “level of expressed mRNA in the presence/in the absence of chemical substance” value (yeast gene YIL006W) was 0.8, the “The level of expressed mRNA in the presence of chemical substance/The level of expressed mRNA in the absence of chemical substance” value (yeast gene YIL045W) was 1.6 and the “The level of expressed mRNA in the presence of chemical substance/The level of expressed mRNA in the absence of chemical substance” value (yeast gene YIL107C) was 1.6. The “The level of expressed mRNA in the presence of chemical substance/The level of expressed mRNA in the absence of chemical substance” value (yeast gene YIL154C) was 1.3, the “The level of expressed mRNA in the presence of chemical substance/The level of expressed mRNA in the absence of chemical substance” value (yeast gene YIL155C) was 2.2 and the “The level of expressed mRNA in the presence of chemical substance/The level of expressed mRNA in the absence of chemical substance” value (yeast gene YIL167W) was 1.2. The “The level of expressed mRNA in the presence of chemical substance/The level of expressed mRNA in the absence of chemical substance” value (yeast gene YIR034C) was 0.8, the “The level of expressed mRNA in the presence of chemical substance/The level of expressed mRNA in the absence of chemical substance” value (yeast gene YIR036C) was 1.0 and the “The level of expressed mRNA in the presence of chemical substance/The level of expressed mRNA in the absence of chemical substance” value (yeast gene YJL031C) was 2.3. The “The level of expressed mRNA in the presence of chemical substance/The level of expressed mRNA in the absence of chemical substance” value (yeast gene YJL068C) was 1.2, the “The level of expressed mRNA in the presence of chemical substance/The level of expressed mRNA in the absence of chemical substance” value (yeast gene YJL099W) was 1.8 and the “level of expressed mRNA in the presence/in the absence of chemical substance” value (yeast gene YJL121C) was 0.7. The “level of expressed mRNA in the presence/in the absence of chemical substance” value (yeast gene YJL167W) was 1.5, the “The level of expressed mRNA in the presence of chemical substance/The level of expressed mRNA in the absence of chemical substance” value (yeast gene YJL172W) was 1.0 and the “level of expressed mRNA in the presence/in the absence of chemical substance” value (yeast gene YJL216C) was 1.5. For the same molecule, the “The level of expressed mRNA in the presence of chemical substance/The level of expressed mRNA in the absence of chemical substance” value (yeast gene YJL219W) was 0.9, the “level of expressed mRNA in the presence/in the absence of chemical substance” value (yeast gene YJR077C) was 0.7 and the “The level of expressed mRNA in the presence of chemical substance/The level of expressed mRNA in the absence of chemical substance” value (yeast gene YJR137C) was 0.8. The “level of expressed mRNA in the presence/in the absence of chemical substance” value (yeast gene YJR143C) was 0.5, the “The level of expressed mRNA in the presence of chemical substance/The level of expressed mRNA in the absence of chemical substance” value (yeast gene YJR148W) was 2.1 and the “The level of expressed mRNA in the presence of chemical substance/The level of expressed mRNA in the absence of chemical substance” value (yeast gene YJR155W) was 1.7.
